Values quoted from earlier work, collected in PMC12150326 (The Journal of Organic Chemistry, 2025).
“And” between values parts separate entries of the source, which are not always exact repeats. Equal values may be shown once. Read-outs that look alike come from different tables or passages of the source.

What was measured:
Design in all cases: method as in NCI-60 database
LOX IMVI = LOX IMVI ref NCI-60 database, cited from earlier work
PC-3 = PC-3 ref NCI-60 database, cited from earlier work
HT29 = HT29 ref NCI-60 database, cited from earlier work
NCI-H226 = NCI-H226 ref NCI-60 database, cited from earlier work
SK-MEL-2 = SK-MEL-2 ref NCI-60 database, cited from earlier work
MCF7 = MCF7 ref NCI-60 database, cited from earlier work
XF 498 = XF 498 ref NCI-60 database, cited from earlier work
T-47D = T-47D ref NCI-60 database, cited from earlier work
SNB-75 = SNB-75 ref NCI-60 database, cited from earlier work
OVCAR-8 = OVCAR-8 ref NCI-60 database, cited from earlier work
DMS 273 = DMS 273 ref NCI-60 database, cited from earlier work
LXFL 529 = LXFL 529 ref NCI-60 database, cited from earlier work
COLO 205 = COLO 205 ref NCI-60 database, cited from earlier work
SF-539 = SF-539 ref NCI-60 database, cited from earlier work
M19-MEL = M19-MEL ref NCI-60 database, cited from earlier work
UACC-257 = UACC-257 ref NCI-60 database; cited from earlier work
UACC-62 = UACC-62 ref NCI-60 database, cited from earlier work
HCC-2998 = HCC-2998 ref NCI-60 database, cited from earlier work
786-0 = 786-0 ref NCI-60 database, cited from earlier work

In the case of `COc1cc2c(c(OC)c1OC)-c1ccc(OC)c(=O)cc1[C@@H](NC(C)=O)CC2` [Colchicine, (−)-Colchicine], the GI50 (LOX IMVI) is given as 19 nM, the Log10GI50 (LOX IMVI) is given as -7.71 Molar and the Log10GI50 (LOX IMVI; listed as 757/1) is given as -7.11 Molar. For the same compound, the GI50 (PC-3) was 24 nM, the Log10GI50 (PC-3) was -7.62 Molar and the Log10LC50 (PC-3) was > -4.00 Molar. For the same compound, the Log10GI50 (PC-3; listed as 757/9) was -7.65 Molar, the Log10TGI (PC-3; listed as 757/9) was -6.37 Molar and the Log10GI50 (PC-3; listed as 757/21) was -7.62 Molar. The Log10TGI (PC-3; listed as 757/21) was > -4.00 Molar, the GI50 (HT29) was 30 nM and the Log10GI50 (HT29) was -7.55 Molar. The Log10LC50 (HT29) was > -4.00 Molar, the Log10TGI (HT29; listed as 757/1) was -4.61 Molar and the Log10GI50 (HT29; listed as 757/9) was -7.32 Molar. For the same compound, the Log10TGI (HT29; listed as 757/9) was -6.43 Molar, the GI50 (NCI-H226) was 30 nM and the Log10GI50 (NCI-H226) was -7.56 Molar. For the same compound, the Log10LC50 (NCI-H226) was > -4.00 Molar, the Log10TGI (NCI-H226; listed as 757/1) was > -4.00 Molar and the Log10GI50 (NCI-H226; listed as 757/9) was -7.18 Molar. For the same compound, the Log10TGI (NCI-H226; listed as 757/9) was -7.35 Molar, the GI50 (SK-MEL-2) was < 10 nM and the Log10GI50 (SK-MEL-2) was < -8 Molar. For the same compound, the Log10LC50 (SK-MEL-2) was > -4.00 Molar, the Log10GI50 (SK-MEL-2; listed as 757/1) was -7.53 Molar and the Log10TGI (SK-MEL-2; listed as 757/1) was < -8.00 Molar. For the same compound, the Log10GI50 (SK-MEL-2; listed as 757/21) was < -8.00 Molar, the Log10TGI (SK-MEL-2; listed as 757/21) was > -4.00 Molar and the GI50 (MCF7) was 11 nM. The Log10GI50 (MCF7) was -7.94 Molar, the Log10LC50 (MCF7) was > -4.00 Molar and the Log10GI50 (MCF7; listed as 757/9) was < -8.00 Molar. The Log10TGI (MCF7; listed as 757/9) was -7.92 Molar, the Log10GI50 (MCF7; listed as 757/21) was -7.89 Molar and the Log10TGI (MCF7; listed as 757/21) was > -4.00 Molar. The Log10LC50 (XF 498) was > -4.00 Molar, the Log10TGI (XF 498; listed as 757/1) was -4.41 Molar and the GI50 (T-47D) was 75700 nM. For the same compound, the Log10GI50 (T-47D) was -4.12 Molar, the Log10LC50 (T-47D) was > -4.00 Molar and the Log10TGI (T-47D) was > -4.00 Molar. For the same compound, the Log10GI50 (T-47D; listed as 757/9) was > -4.00 Molar, the Log10GI50 (T-47D; listed as 757/21) was -4.21 Molar and the GI50 (SNB-75) was 910 nM. The Log10GI50 (SNB-75) was -6.04 Molar, the Log10LC50 (SNB-75) was > -4.00 Molar and the Log10GI50 (SNB-75; listed as 757/1) was < -8.00 Molar. The Log10TGI (SNB-75; listed as 757/1) was -5.53 Molar, the Log10TGI (SNB-75; listed as 757/9) was < -8.00 Molar and the Log10TGI (SNB-75; listed as 757/21) was > -4.00 Molar. The Log10TGI (OVCAR-8; listed as 757/1) was > -4.00 Molar, the Log10LC50 (OVCAR-8; listed as 757/9) was -7.11 Molar and the Log10LC50 (OVCAR-8; listed as 757/21) was > -4.00 Molar. The Log10LC50 (DMS 273) was > -4.00 Molar, the Log10TGI (DMS 273) was > -4.00 Molar and the Log10GI50 (DMS 273; listed as 757/1) was -7.51 Molar. The Log10GI50 (DMS 273; listed as 757/21) was < -8.00 Molar and -7.87 Molar, the Log10LC50 (LXFL 529) was > -4.00 Molar and the Log10TGI (LXFL 529) was > -4.00 Molar. For the same compound, the Log10GI50 (LXFL 529; listed as 757/21) was < -8.00 Molar and -7.80 Molar, the GI50 (COLO 205) was 10 nM and the Log10GI50 (COLO 205) was -7.83 Molar. The Log10GI50 (COLO 205; listed as 757/1) was -5.74 Molar, the Log10GI50 (COLO 205; listed as 757/21) was < -8.00 Molar and -7.83 Molar and the Log10LC50 (COLO 205; listed as 757/21) was -7.24 Molar. The Log10TGI (COLO 205; listed as 757/21) was -7.89 Molar, the GI50 (SF-539) was 30 nM and the Log10GI50 (SF-539) was -7.54 Molar. The Log10GI50 (SF-539; listed as 757/1) was -7.48 Molar, the Log10TGI (SF-539; listed as 757/9) was -6.82 Molar and the Log10LC50 (SF-539; listed as 757/21) was > -4.00 Molar and -4.05 Molar. For the same compound, the Log10LC50 (M19-MEL) was > -4.00 Molar, the Log10TGI (M19-MEL) was > -4.00 Molar and the Log10GI50 (M19-MEL; listed as 757/21) was < -8.00 Molar. For the same compound, the GI50 (UACC-257) was > 100000 nM, the Log10GI50 (UACC-257) was > -4 Molar and the Log10LC50 (UACC-257) was > -4.00 Molar. The Log10TGI (UACC-257) was > -4.00 Molar, the GI50 (UACC-62) was 21 nM and the Log10GI50 (UACC-62) was -7.67 Molar. The Log10GI50 (UACC-62; listed as 757/1) was -7.19 Molar, the Log10GI50 (UACC-62; listed as 757/9) was -6.40 Molar and the Log10LC50 (UACC-62; listed as 757/9) was -6.18 Molar. The Log10TGI (UACC-62; listed as 757/9) was -7.72 Molar, the Log10LC50 (UACC-62; listed as 757/21) was > -4.00 Molar and -4.22 Molar and the GI50 (HCC-2998) was 30 nM. The Log10GI50 (HCC-2998) was -7.51 Molar, the Log10LC50 (HCC-2998) was > -4.00 Molar and the Log10GI50 (HCC-2998; listed as 757/1) was -7.48 Molar. For the same compound, the Log10GI50 (HCC-2998; listed as 757/9) was -7.78 Molar, the Log10TGI (HCC-2998; listed as 757/9) was -7.59 Molar and -7.33 Molar and the GI50 (786-0) was 78 nM. The Log10GI50 (786-0) was -7.11 Molar, the Log10LC50 (786-0) was > -4.00 Molar and the Log10TGI (786-0) was > -4.00 Molar. The Log10GI50 (786-0; listed as 757/9) was -7.54 Molar and -7.46 Molar and the Log10GI50 (786-0; listed as 757/21) was -7.24 Molar and -7.34 Molar and -7.11 Molar.
